Values joined by “and” are separate entries in the source; they are usually repeats but may differ in a detail not shown here. Equal entries are not always repeated. After the bases stand the sugars from the 5' end (letter, count) and the backbone: PS all phosphorothioate, else s phosphorothioate and o phosphodiester by linkage. Methylation of C is not given here. e = 2'-O-(2-methoxyethyl) (MOE); l = locked nucleic acid (LNA); k = constrained ethyl (cEt); d = 2'-deoxy (DNA)
Experiments:
SNHG14 = conditions: ASO
SOD1 = conditions: ASO

For “ACTGTTTATACCCTTTC (sugars l1 d11 l1 d1 l3, PS)”, the target mRNA inhibition (SNHG14; Human Neuronal Cell, 7.5 µM) was 59%.
“ACTGTTTATACCCTTTC (sugars l1 d11 l1 d2 l2, PS)” was tested, and the target mRNA inhibition (SNHG14; Human Neuronal Cell, 7.5 µM) was 56%.
“TTTATCAATATCTTCTCA (sugars l1 d2 l1 d10 l4, PS)” gave a target mRNA inhibition (SNHG14; Human Neuronal Cell, 7.5 µM) of 53%.
In the case of “TGTTTCCATCTACTATTA (sugars l1 d4 l1 d9 l3, PS)”, the target mRNA inhibition (SNHG14; Human Neuronal Cell, 7.5 µM) is reported as 61%.
“TTTATACCTTTCTTTAACCC (sugars lddddddddddddldlddll, PS)” showed a target mRNA inhibition (SNHG14; Human Neuronal Cell, 7.5 µM) of 52%.
For “TACTCTGCAATACACCA (sugars l1 d13 l3, PS)”, the target mRNA inhibition (SNHG14; Human Neuronal Cell, 7.5 µM) was 60%.
“ATATTGATTCAATTCCC (sugars lldddddddddldldll, PS)” gave a target mRNA inhibition (SNHG14; Human Neuronal Cell, 7.5 µM) of 60%.
With “TATTTATACACCATCAT (sugars l3 d11 l3, PS)” the target mRNA inhibition (SNHG14; Human Neuronal Cell, 0.2 µM) was 59% and the target mRNA inhibition (SNHG14; Human Neuronal Cell, 1 µM) was 63%.
Sequence “GTTTCCATCTACTATTAAT (sugars llddlddddddddddldll, PS)” has a target mRNA inhibition (SNHG14; Human Neuronal Cell, 7.5 µM) of 59%.
Work on “AAATCTCAACTACCATTTTT (sugars llldldlddddddddddlll, PS)” yielded a target mRNA inhibition (SNHG14; Human Neuronal Cell, 7.5 µM) of 34%.
Sequence CTTTTAACCAGAGTGG (sugars l4 d9 l3, PS) has a target mRNA inhibition (SNHG14; Human Neuronal Cell, 7.5 µM) of 65%.
“TTCTGTATACACCATCCC (sugars ldddlddddddddlddll, PS)” gave a target mRNA inhibition (SNHG14; Human Neuronal Cell, 7.5 µM) of 54%.
Work on “AGTTCTACTATACTTTC (sugars l3 d10 l1 d1 l2, PS)” yielded a target mRNA inhibition (SNHG14; Human Neuronal Cell, 7.5 µM) of 59%.
Sequence “CCACTGATTTCCTTAAA (sugars l4 d11 l2, PS)” has a target mRNA inhibition (SNHG14; Human Neuronal Cell, 0.2 µM) of 40% and a target mRNA inhibition (SNHG14; Human Neuronal Cell, 1 µM) of 57%.
“TTATAGCCATTCTATCT (sugars lddlddddddddlldll, PS)” was tested, and the target mRNA inhibition (SNHG14; Human Neuronal Cell, 7.5 µM) was 25%.
Sequence “TTACACTTAATTATACTTCC (sugars l3 d1 l1 d12 l3, PS)” has a target mRNA inhibition (SNHG14; Human Neuronal Cell, 7.5 µM) of 70%.
With “ACATCTCATACTTGCTT (sugars l2 d13 l2, PS)” the target mRNA inhibition (SNHG14; Human Neuronal Cell, 0.2 µM) was 1%, the target mRNA inhibition (SNHG14; Human Neuronal Cell, 1 µM) was 8% and the target mRNA inhibition (SNHG14; Human Neuronal Cell, 5 µM) was 7%. The target mRNA inhibition (SNHG14; Mouse Primary Neuronal Cell, 0.005 µM) was 90.7%.
With “TTCCTTTCATTAACATTT (sugars l4 d12 l2, PS)” the target mRNA inhibition (SNHG14; Human Neuronal Cell, 0.2 µM) was 37% and the target mRNA inhibition (SNHG14; Human Neuronal Cell, 1 µM) was 55%.
With ATCTGCTACATATTCT (sugars l4 d10 l2, PS) the target mRNA inhibition (SNHG14; Human Neuronal Cell, 0.2 µM) was 41% and the target mRNA inhibition (SNHG14; Human Neuronal Cell, 1 µM) was 61%.
TATTGATTCAATTCCC (sugars l3 d10 l3, PS) was tested, and the target mRNA inhibition (SNHG14; Human Neuronal Cell, 0.2 µM) was 62% and the target mRNA inhibition (SNHG14; Human Neuronal Cell, 1 µM) was 68%.
Work on “TTACACTTAATTATACTT (sugars l3 d12 l3, PS)” yielded a target mRNA inhibition (SNHG14; Human Neuronal Cell, 0.2 µM) of 14% and a target mRNA inhibition (SNHG14; Human Neuronal Cell, 1 µM) of 22%.
Work on “CCTTTCCAATGAATCTA (sugars l2 d11 l4, PS)” yielded a target mRNA inhibition (SNHG14; Human Neuronal Cell, 0.2 µM) of 53% and a target mRNA inhibition (SNHG14; Human Neuronal Cell, 1 µM) of 59%.
“TACAGTGTTTAATGTTT (sugars e3 k2 d7 k2 e3, PS)” gave a target mRNA inhibition (SOD1; HepG2, 3 µM) of 30%.
In the case of “GTCGCCCTTCAGCACGC (sugars e3 k2 d7 k2 e3, PS)”, the target mRNA inhibition (SOD1; HepG2, 3 µM) is reported as 28%.
With “TCAGCAGTCACATTGCCCAA (sugars e5 d10 e5, PS)” the target mRNA inhibition (SOD1; HepG2, 5 µM) was 52% and 42%.
Work on “ATAACAGATGAGTTAAG (sugars e2 k2 d8 k2 e3, PS)” yielded a target mRNA inhibition (SOD1; HepG2, 4 µM) of 27%.
Work on “ATCTTCCAAGTGATCAT (sugars e3 k2 d7 k2 e3, PS)” yielded a target mRNA inhibition (SOD1; HepG2, 3 µM) of 7%.
“CATTACTTTCCTTCTGC (sugars e3 k2 d7 k2 e3, PS)” gave a target mRNA inhibition (SOD1; HepG2, 3 µM) of 28%.
In the case of “GATACATTTCTACAGC (sugars kekeddddddddekek, linkages s1 o3 s8 o1 s2)”, the target mRNA inhibition (SOD1; A431, 0.12 µM) is reported as 12%, the target mRNA inhibition (SOD1; A431, 0.6 µM) is reported as 22% and the target mRNA inhibition (SOD1; A431, 3 µM) is reported as 21%. For the same sequence, the target mRNA inhibition (SOD1; A431, 15 µM) was 34%, the target mRNA inhibition (SOD1; HepG2, 0.222 µM) was 54% and the target mRNA inhibition (SOD1; HepG2, 0.667 µM) was 78%. The target mRNA inhibition (SOD1; HepG2, 2 µM) was 89% and the target mRNA inhibition (SOD1; HepG2, 6 µM) was 96%.
In the case of “TGGATTCTTTTAATAGCCTC (sugars e5 d10 e5, PS)”, the target mRNA inhibition (SOD1; HepG2, 5 µM) is reported as 13%.
Work on “TGAACATGGAATCCATG (sugars e3 k2 d7 k2 e3, PS)” yielded a target mRNA inhibition (SOD1; HepG2, 3 µM) of 2%.
With “GGATAACAGATGAGTTA (sugars e3 k2 d7 k2 e3, PS)” the target mRNA inhibition (SOD1; HepG2, 3 µM) was 32%.
For “GAGGATTAAAGTGAGGA (sugars e3 k2 d7 k2 e3, PS)”, the target mRNA inhibition (SOD1; HepG2, 3 µM) was 40%.
With “CCCATCTGTGATTTAAG (sugars e2 k2 d9 k2 e2, PS)” the target mRNA inhibition (SOD1; HepG2, 5 µM) was 49%.
“ATTGATGATGCCCTGCACTG (sugars e5 d10 e5, PS)” gave a target mRNA inhibition (SOD1; HepG2, 4 µM) of 8%.
With “GGCGATCCCAATTACAC (sugars e3 k2 d7 k2 e3, PS)” the target mRNA inhibition (SOD1; HepG2, 3 µM) was 9%.
Work on “GCACTGGGCCGTCGCCCTTC (sugars e5 d10 e5, PS)” yielded a target mRNA inhibition (SOD1; HepG2, 4 µM) of 14%.
“AGGCTTGAATGACAAAGAAA (sugars e5 d10 e5, PS)” was tested, and the target mRNA inhibition (SOD1; HepG2, 5 µM) was 27%.
In the case of “ATACATTTCTACAGCTAG (sugars e5 d8 e5, linkages s1 o3 s9 o2 s2)”, the target mRNA inhibition (SOD1; A431, 0.12 µM) is reported as 9%, the target mRNA inhibition (SOD1; A431, 0.6 µM) is reported as 10% and the target mRNA inhibition (SOD1; A431, 3 µM) is reported as 27%. The target mRNA inhibition (SOD1; A431, 15 µM) was 43%, the target mRNA inhibition (SOD1; HepG2, 0.222 µM) was 7% and the target mRNA inhibition (SOD1; HepG2, 0.667 µM) was 28%. It also gave a target mRNA inhibition (SOD1; HepG2, 2 µM) of 54% and a target mRNA inhibition (SOD1; HepG2, 6 µM) of 79%.
With “AGGATAACAGATGAGTT (sugars e2 k2 d8 k2 e3, PS)” the target mRNA inhibition (SOD1; HepG2, 0.1875 µM) was 30%, the target mRNA inhibition (SOD1; HepG2, 0.75 µM) was 71% and the target mRNA inhibition (SOD1; HepG2, 3 µM) was 87%. The target mRNA inhibition (SOD1; HepG2, 4 µM) was 84% and the target mRNA inhibition (SOD1; HepG2, 12 µM) was 95%.
